Values of other authors in US20110195110A1, “UREA COMPOUNDS USEFUL IN THE TREATMENT OF CANCER” (priority 2005, published 2011).

Tests used:
[1] = tested on: Bcr-Abl E255K mutant; details: biochemical assay
[2] = tested on: Bcr-Abl kinase; details: greater potency than Imatinib
[3] = tested on: Imatinib-resistant mutations of Bcr-Abl
[4] = tested on: early phase CML; details: patients with early phase CML

potency of inhibition of Bcr-Abl kinase activity relative to Imatinib [2]	SMILES	inhibition of the E255K mutant [1]	inhibition of Imatinib-resistant mutations [3]	response at haematological and cytogenetic levels [4]
20 fold	Cc1cn(-c2cc(NC(=O)c3ccc(C)c(Nc4nccc(-c5cccnc5)n4)c3)cc(C(F)(F)F)c2)cn1 [AMN-107]	somewhat weak inhibition	inhibit most Imatinib-resistant mutations, except for T3151	–
–	Cc1ccc(NC(=O)c2ccc(CN3CCN(C)CC3)cc2)cc1Nc1nccc(-c2cccnc2)n1 [Imatinib]	–	–	greater than 90%
